Measured values published in PubChem BioAssay (NCI).
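In this assay, cells in 96-well plates receive the compound at five concentrations for 48 hours. Endpoints are linearly interpolated between the surrounding concentrations. At the TGI there is no net growth.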

Test system: SN12K1 renal
Assay: DTP human tumour cell line panel, 48 h

Row | SMILES | TGI [µM]
1 | CC(=O)O[C@H]1C(=O)O[C@@H]2C[C@H]3C(C)=CC(=O)[C@@H](O)[C@]3(C)[C@H]3[C@@]4(O)OC[C@]32[C@@H]1[C@@H](C)[C@H]4O | 0.0696
2 | CNNCc1ccc(C(=O)NC(C)C)cc1 | > 456
